# Measured values taken from US11903955B2, “Methods of treating heart failure with reduced ejection fraction” (ASTRAZENECA AB, priority 2019, dated 2024).
# Read-outs that look alike come from different tables or passages of the source.
# Tested on: patients with chronic heart failure with reduced ejection fraction (LVEF ≤40%)
# From the text: Eligibility requirements included an age of at least 18 years, New York Heart Association (NYHA) class II, III, or IV symptoms, and an ejection fraction of 40% or less. […] Patients with atrial fibrillation or atrial flutter on their baseline electrocardiogram were required to have a NT-proBNP level of at least 900 pg/mL, irrespective of history of heart failure hospitalization. Patients were required to receive standard drug and device therapy for heart failure including an angiotensin-converting enzyme (ACE) inhibitor, angiotensin receptor blocker (ARB), or sacubitril/valsartan; a beta-blocker, unless contraindicated or not tolerated, and a mineralocorticoid receptor (MR) […], if considered appropriate. Doses were required to be individually optimized, in accordance with the targets recommended in guidelines, and stable for at least 4 weeks (excepting diuretics, which could be dosed flexibly). Investigators were advised that patients with type 2 diabetes should continue to take their glucose-lowering therapies, but these could be adjusted as required. Specifically, the protocol stated that the dose of insulin, sulfonylurea treatment, or both, could be reduced to minimize the risk of hypoglycemia, for example in patients with a baseline hemoglobin A1C (HbA1c) level below 7%.
# All the patients provided written informed consent and entered a 14-day enrollment period during which the trial inclusion and exclusion criteria were checked and baseline information gathered, including findings from clinical examination and laboratory measurements. […] Investigators used an interactive voice or web response system to obtain treatment assignment. Randomization was stratified based on a diagnosis of type 2 diabetes, defined as either an established diagnosis or a HbA1c level of 6.5% or greater (≥48 mmol/mol) confirmed in a central laboratory at screening. Patients were evaluated at 14 days and 60 days after randomization, with a focus on assessment of heart failure and volume status, adverse events, and checking renal function and potassium. Further study visits took place at 4 months and at 4-month intervals thereafter. The protocol required that study drug be permanently discontinued if pregnancy or diabetic ketoacidosis occurred.
# The primary outcome was a composite of a first episode of worsening heart failure or death from cardiovascular causes. An episode of worsening heart failure was either an unplanned hospitalization for heart failure or an urgent heart failure visit requiring intravenous therapy.^14 The first of the secondary outcomes was the composite of heart failure hospitalization or cardiovascular death.
# Outcomes were adjudicated by a clinical-end-points committee, blinded to treatment assignment, according to prespecified criteria.
# Using a two-sided alpha of 5%, we calculated that 844 primary endpoints would provide a statistical power of 90% for the test of the hypothesis. With an expected annual event rate of 11% in the placebo treatment group, approximately 4500 patients were estimated to provide the required number of primary events, based on an anticipated recruitment period of 18 months and an average follow-up period of approximately 24 months. A closed testing procedure was used, including a prespecified hierarchical testing of the primary and secondary endpoints in the order specified above. Type I error was controlled at a two-sided 0.0499 alpha level for multiplicity across primary and secondary endpoints and taking account of one interim efficacy analysis.
# Data from all randomly assigned patients were included in the analyses of the primary and secondary outcomes, according to the intention-to-treat principle. Baseline characteristics were summarized as means and standard deviations, medians and inter-quartile ranges, or percentages.
structure (smiles),measurement,setting,value
"CCOc1ccc(Cc2cc([C@@H]3O[C@H](CO)[C@@H](O)[C@H](O)[C@H]3O)ccc2Cl)cc1 [Dapagliflozin, dapagliflozin]","Cardiovascular death or hospitalization for heart failure, No. (%)",No T2DM (N = 1298),169 (13.0) No. (%)
same,"Cardiovascular death or hospitalization for heart failure, Subjects with Event/100 Patient-Yr",No T2DM (N = 1298),9.1 Event/100 Patient-Yr
same,"Cardiovascular death, No. (%)",No T2DM (N = 1298),106 (8.2) No. (%)
same,"Cardiovascular death, Subjects with Event/100 Patient-Yr",No T2DM (N = 1298),5.5 Event/100 Patient-Yr
same,"Death from any cause, No. (%)",No T2DM (N = 1298),133 (10.3) No. (%)
same,"Death from any cause, Subjects with Event/100 Patient-Yr",No T2DM (N = 1298),6.9 Event/100 Patient-Yr
same,"Hospitalization for heart failure or an urgent heart failure visit, No. (%)",No T2DM (N = 1298),95 (7.3) No. (%)
same,"Hospitalization for heart failure or an urgent heart failure visit, Subjects with Event/100 Patient-Yr",No T2DM (N = 1298),5.1 Event/100 Patient-Yr
same,"Hospitalization for heart failure, No. (%)",No T2DM (N = 1298),93 (7.2) No. (%)
same,"Hospitalization for heart failure, Subjects with Event/100 Patient-Yr",No T2DM (N = 1298),5.0 Event/100 Patient-Yr
same,"Primary composite outcome, No. (%)",No T2DM (N = 1298),171 (13.2) No. (%)
same,"Primary composite outcome, Subjects with Event/100 Patient-Yr",No T2DM (N = 1298),9.2 Event/100 Patient-Yr
same,Total number of (first and recurrent) heart failure hospitalizations and cardiovascular death,No T2DM (N = 1298),239
same,"Urgent heart failure visit, No. (%)",No T2DM (N = 1298),3 (0.2) No. (%)
same,"Urgent heart failure visit, Subjects with Event/100 Patient-Yr",No T2DM (N = 1298),0.2 Event/100 Patient-Yr
same,"Worsening renal function (composite), No. (%)",No T2DM (N = 1298),10 (0.8) No. (%)
same,"Worsening renal function (composite), Subjects with Event/100 Patient-Yr",No T2DM (N = 1298),0.5 Event/100 Patient-Yr
same,"Cardiovascular death or hospitalization for heart failure, No. (%)",T2DM (N = 1075),213 (19.8) No. (%)
same,"Cardiovascular death or hospitalization for heart failure, Subjects with Event/100 Patient-Yr",T2DM (N = 1075),14.4 Event/100 Patient-Yr
same,"Cardiovascular death, No. (%)",T2DM (N = 1075),121 (11.3) No. (%)
same,"Cardiovascular death, Subjects with Event/100 Patient-Yr",T2DM (N = 1075),7.7 Event/100 Patient-Yr
same,"Death from any cause, No. (%)",T2DM (N = 1075),143 (13.3) No. (%)
same,"Death from any cause, Subjects with Event/100 Patient-Yr",T2DM (N = 1075),9.1 Event/100 Patient-Yr
same,"Hospitalization for heart failure or an urgent heart failure visit, No. (%)",T2DM (N = 1075),142 (13.2) No. (%)
same,"Hospitalization for heart failure or an urgent heart failure visit, Subjects with Event/100 Patient-Yr",T2DM (N = 1075),9.6 Event/100 Patient-Yr
same,"Hospitalization for heart failure, No. (%)",T2DM (N = 1075),138 (12.8) No. (%)
same,"Hospitalization for heart failure, Subjects with Event/100 Patient-Yr",T2DM (N = 1075),9.3 Event/100 Patient-Yr
same,"Primary composite outcome, No. (%)",T2DM (N = 1075),215 (20.0) No. (%)
same,"Primary composite outcome, Subjects with Event/100 Patient-Yr",T2DM (N = 1075),14.6 Event/100 Patient-Yr
same,Total number of (first and recurrent) heart failure hospitalizations and cardiovascular death,T2DM (N = 1075),328
same,"Urgent heart failure visit, No. (%)",T2DM (N = 1075),7 (0.7) No. (%)
same,"Urgent heart failure visit, Subjects with Event/100 Patient-Yr",T2DM (N = 1075),0.4 Event/100 Patient-Yr
same,"Worsening renal function (composite), No. (%)",T2DM (N = 1075),18 (1.7) No. (%)
same,"Worsening renal function (composite), Subjects with Event/100 Patient-Yr",T2DM (N = 1075),1.2 Event/100 Patient-Yr
same,"Cardiovascular death or hospitalization for heart failure, Events/100 Patient-Yr",all patients (N = 2373),11.4 Events/100 Patient-Yr
same,"Cardiovascular death or hospitalization for heart failure, No. (%)",all patients (N = 2373),382 (16.1) No. (%)
same,"Cardiovascular death, Events/100 Patient-Yr",all patients (N = 2373),6.5 Events/100 Patient-Yr
same,"Cardiovascular death, No. (%)",all patients (N = 2373),227 (9.6) No. (%)
same,"Death from any cause, Events/100 Patient-Yr",all patients (N = 2373),7.9 Events/100 Patient-Yr
same,"Death from any cause, No. (%)",all patients (N = 2373),276 (11.6) No. (%)
same,"Hospitalization for heart failure or an urgent heart failure visit, Events/100 Patient-Yr",all patients (N = 2373),7.1 Events/100 Patient-Yr
same,"Hospitalization for heart failure or an urgent heart failure visit, No. (%)",all patients (N = 2373),237 (10.0) No. (%)
same,"Hospitalization for heart failure, Events/100 Patient-Yr",all patients (N = 2373),6.9 Events/100 Patient-Yr
same,"Hospitalization for heart failure, No. (%)",all patients (N = 2373),231 (9.7) No. (%)
same,"Primary composite outcome, Events/100 Patient-Yr",all patients (N = 2373),11.6 Events/100 Patient-Yr
same,Total number of (first and recurrent) heart failure hospitalizations and cardiovascular death,all patients (N = 2373),567
same,"Urgent heart failure visit, Events/100 Patient-Yr",all patients (N = 2373),0.3 Events/100 Patient-Yr
same,"Urgent heart failure visit, No. (%)",all patients (N = 2373),10 (0.4) No. (%)
same,"Worsening renal function (composite), Events/100 Patient-Yr",all patients (N = 2373),0.8 Events/100 Patient-Yr
